Some test systems named below: HT29 colon; SW-620 colon; NCI-H23 lung; SF-539 CNS; HS 578T breast; HCC-2998 colon; KM12 colon; SF-268 CNS; NCI-H460 lung; PC-3 prostate; MCF7 breast; RXF 393 renal; SR leukemia; MALME-3M melanoma; SNB-75 CNS; EKVX NSCLC; DU-145 prostate; UO-31 renal; OVCAR-3 ovarian; HCT-15 colon.
Common to all, as to test: NCI anticancer screen, dose series, 48 h

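Cultured in 96-well plates, cells were exposed to test compound for 48 hours across five concentrations. Definition used: TGI = concentration required for complete inhibition of growth.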 A value given as a limit tells only on which side of the number the result lay.

As to `CCN1c2cc(Br)cc3[nH]c(=O)n(c23)CCC1C` (stereo not given), the TGI is 31.6 µM in the assay with HT29 colon; over 100 µM in the assay on SW-620 colon; 53.2 µM in the assay with NCI-H23 lung; over 100 µM in the assay on SF-539 CNS; 28.9 µM in the assay on HS 578T breast; 31.6 µM in the assay on HCC-2998 colon. In addition, the TGI came out at 47.4 µM with KM12 colon; 46.1 µM in the assay on SF-268 CNS; 35.9 µM in the assay on NCI-H460 lung; 39.7 µM in the assay with PC-3 prostate; 54.5 µM with MCF7 breast; 27.6 µM in the assay with RXF 393 renal. Besides, the TGI came to 65.9 µM with SR leukemia; 56.1 µM in the assay on MALME-3M melanoma; 32.4 µM in the assay with SNB-75 CNS; 23.5 µM in the assay with EKVX NSCLC; 36 µM in the assay on DU-145 prostate; 37.7 µM with UO-31 renal. The TGI in the assay with OVCAR-3 ovarian was found to be 28.9 µM; with HCT-15 colon it was 35.5 µM.

As for `CC(NCc1c(O)ccc2ccc(=O)oc12)C(=O)O` (stereo not given), the TGI with HT29 colon, in the assay on SW-620 colon, in the assay on NCI-H23 lung, in the assay on SF-539 CNS, in the assay with HS 578T breast and with HCC-2998 colon was over 100 µM each time. Also, the TGI in the assay with KM12 colon, in the assay on SF-268 CNS, with NCI-H460 lung, in the assay with PC-3 prostate, in the assay with MCF7 breast and in the assay on RXF 393 renal was over 100 µM each time. For the same compound, the TGI in the assay with SR leukemia, with MALME-3M melanoma, in the assay on SNB-75 CNS, in the assay on EKVX NSCLC, in the assay with DU-145 prostate and with UO-31 renal was over 100 µM each time. The TGI with OVCAR-3 ovarian and in the assay on HCT-15 colon was over 100 µM throughout.

`COC(=O)c1ccccc1CC1Cc2cc3c(cc2C1=O)CCC3` (stereo not given): the TGI in the assay with HT29 colon was 41.4 µM; in the assay with SW-620 colon, over 100 µM; with NCI-H23 lung it was 75.1 µM; in the assay with SF-539 CNS, 43.1 µM; in the assay with HS 578T breast, 86.6 µM; with HCC-2998 colon, over 100 µM. Moreover, the TGI in the assay on KM12 colon is over 100 µM; with SF-268 CNS, over 100 µM; in the assay on NCI-H460 lung, over 71.4 µM; in the assay on PC-3 prostate, over 100 µM; in the assay with MCF7 breast, 65.3 µM; in the assay with RXF 393 renal it was 17.1 µM. Moreover, the TGI with SR leukemia is over 69 µM; in the assay on MALME-3M melanoma, 69.2 µM; in the assay with SNB-75 CNS it was 55.7 µM; in the assay on EKVX NSCLC, over 100 µM; in the assay on DU-145 prostate, over 100 µM; in the assay with UO-31 renal it was 86.3 µM. In addition, the TGI was over 76.5 µM in the assay on OVCAR-3 ovarian and over 67.3 µM with HCT-15 colon.

For `O=C1OC(C2Cc3ccc4c(c3C2=O)CCC4)c2ccccc21` (stereo not given), the TGI in the assay with HT29 colon, in the assay on SW-620 colon, with NCI-H23 lung, with SF-539 CNS, with HS 578T breast and in the assay on HCC-2998 colon was over 100 µM throughout. In addition, the TGI in the assay on KM12 colon, in the assay on SF-268 CNS, with NCI-H460 lung, in the assay with PC-3 prostate, in the assay with MCF7 breast and in the assay on RXF 393 renal was over 100 µM throughout. Further, the TGI in the assay on SR leukemia, in the assay with MALME-3M melanoma, with SNB-75 CNS, with EKVX NSCLC, in the assay on DU-145 prostate and with UO-31 renal was over 100 µM in each case. The TGI with OVCAR-3 ovarian and in the assay with HCT-15 colon was over 100 µM each time.

For `Cc1c(/C=N/NC(=S)Nc2ccc(Cl)cc2)c(=O)n(-c2ccccc2)n1C`, the TGI was over 100 µM with HT29 colon; over 100 µM in the assay with SW-620 colon; 54.5 µM in the assay with NCI-H23 lung; 28.2 µM in the assay on SF-539 CNS; 50.8 µM in the assay with HS 578T breast; over 100 µM in the assay on HCC-2998 colon. Besides, the TGI in the assay on KM12 colon is 99.4 µM; with SF-268 CNS it was 39 µM; with NCI-H460 lung, over 61 µM; in the assay with PC-3 prostate it was over 100 µM; with MCF7 breast it was over 54.9 µM; with RXF 393 renal, 28 µM. Besides, the TGI with SR leukemia is over 100 µM; in the assay with MALME-3M melanoma it was over 60.3 µM; in the assay on SNB-75 CNS, 35.8 µM; with EKVX NSCLC, over 65.2 µM; in the assay with DU-145 prostate, over 100 µM; in the assay on UO-31 renal, over 100 µM. In addition, the TGI in the assay with OVCAR-3 ovarian was over 65.3 µM; in the assay on HCT-15 colon, over 100 µM.

For the compound `Cn1c(=O)c2nc3c(=O)n(C)c(=O)n(CC(N)=O)c3nc2n(C)c1=O`, the TGI with HT29 colon, in the assay on SW-620 colon, with NCI-H23 lung, in the assay with SF-539 CNS, with HS 578T breast and in the assay with HCC-2998 colon was over 100 µM each time. In addition, the TGI with KM12 colon, in the assay on SF-268 CNS, in the assay on NCI-H460 lung, in the assay with PC-3 prostate, with MCF7 breast and with RXF 393 renal was over 100 µM each time. Besides, the TGI with SR leukemia, with MALME-3M melanoma, in the assay on SNB-75 CNS, in the assay with EKVX NSCLC, in the assay with DU-145 prostate and in the assay on UO-31 renal was over 100 µM throughout. For the same compound, the TGI in the assay with OVCAR-3 ovarian and with HCT-15 colon was over 100 µM throughout.

The record behind these values is PubChem BioAssay (NCI).
